We go through five compounds from PubChem BioAssay AID504893 (The Scripps Research Institute Molecular Screening Center, 2011).

The structures appear in SMILES notation.

In the experiment the target is cAMP-dependent protein kinase type II-beta regulatory subunit (Homo sapiens) (UniProt P31323). The experiment can be described thus: PKAc release from R2B regulatory subunit – biochemical, fluorescence polarization, EC50, human R2B, selectivity assay for PKA-R1A activator project, dose response (AID 504893). The settings on record: PKA-R2B holoenzyme, Cy5-IP20 fluorescence polarization activation.
Chain of cAMP-dependent protein kinase type II-beta regulatory subunit (Homo sapiens) (P31323 whole entry, looked up): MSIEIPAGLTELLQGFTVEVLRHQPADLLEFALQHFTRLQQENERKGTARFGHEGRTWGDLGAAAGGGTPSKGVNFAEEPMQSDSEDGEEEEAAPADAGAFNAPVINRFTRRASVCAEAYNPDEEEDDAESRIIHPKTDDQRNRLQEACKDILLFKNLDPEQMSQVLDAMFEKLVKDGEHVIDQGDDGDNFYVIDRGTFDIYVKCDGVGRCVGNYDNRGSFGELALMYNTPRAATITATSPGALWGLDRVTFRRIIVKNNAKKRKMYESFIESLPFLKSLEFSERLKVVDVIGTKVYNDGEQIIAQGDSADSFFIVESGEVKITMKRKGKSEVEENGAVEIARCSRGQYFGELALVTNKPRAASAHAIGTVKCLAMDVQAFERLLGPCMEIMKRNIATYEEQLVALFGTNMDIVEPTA

Broadly, the EC50 is the midpoint of the concentration-response curve. Turning to `CCCC(=O)Nc1ncnc2c1ncn2[C@@H]1O[C@@H]2OP(=O)(O)OC[C@H]2[C@H]1OC(=O)CCC`, the EC50 is 9100 nM. For `CCOP1(=O)OCC2OC(n3cnc4c(N)ncnc43)C(O)C2O1` (stereo not given), the EC50 is 3750 nM. In the case of `Nc1ncnc2c1nc(Br)n2[C@@H]1O[C@@H]2COP(=O)(O)O[C@H]2[C@H]1O`, the EC50 is 51.1 nM.

With `Nc1nc2c(nc(Br)n2[C@@H]2O[C@@H]3COP(=O)(O)O[C@H]3[C@H]2O)c(=O)[nH]1`, the EC50 is 2160 nM. In the case of `Nc1ncnc2c1nc(Sc1ccc(Cl)cc1)n2[C@@H]1O[C@@H]2COP(=O)(O)O[C@H]2[C@H]1O`, the EC50 was 50.5 nM.
